Legend:
ROCK2 [1] = target: T1, ROCK2 (Homo sapiens (Human), UniProt O75116); test: Stability in varied buffers and temperatures, measured by ROCK2 inhibition; type: physicochemical
Experimental: Stability in Varied Buffers and Temperatures. […] (room temperature), 37° C., 4° C., and −20° C. in water, 150 mM NaCl, pH 5 and 6 buffers, or buffers containing 150 mM NaCl. No visible precipitates were observed after storage.

[2] = test system: New Zealand White rabbits; conditions: 0.1 ml, 20 mg/ml in saline
Source text: The right eye that was not treated served as the control. […] The eyes of initial and confirmatory test animals were examined with slit lamp for ocular lesions. […] The animals were also observed for clinical signs of toxicity, morbidity and mortality.

ROCK2 [3] = target: T1, ROCK2; test: Stability in varied buffers and temperatures, measured by ROCK2 inhibition; type: physicochemical; remark: listed apart in the source
LCK = LCK (Homo sapiens (Human), UniProt P06239); test: Kinase Selectivity Profiling General Panel (ADP-Glo); type: biochemical; conditions: 1 μM compound, read-out: Percent enzyme activity inhibition, LCK
Experimental: (§1) After this incubation, 5 μl of ADP-Glo™ reagent was added to 5 μl reaction and incubated for 40 minutes. Then, 10 μl of Kinase Detection Reagent added to all assay wells in the assay plate and incubated at room temperature for 30 minutes. […]

p38a = p38a (Homo sapiens (Human), UniProt Q16539); test: as above; type: biochemical; conditions: 1 μM compound, read-out: Percent enzyme activity inhibition, p38a
p38a, sequence (Q16539 whole entry): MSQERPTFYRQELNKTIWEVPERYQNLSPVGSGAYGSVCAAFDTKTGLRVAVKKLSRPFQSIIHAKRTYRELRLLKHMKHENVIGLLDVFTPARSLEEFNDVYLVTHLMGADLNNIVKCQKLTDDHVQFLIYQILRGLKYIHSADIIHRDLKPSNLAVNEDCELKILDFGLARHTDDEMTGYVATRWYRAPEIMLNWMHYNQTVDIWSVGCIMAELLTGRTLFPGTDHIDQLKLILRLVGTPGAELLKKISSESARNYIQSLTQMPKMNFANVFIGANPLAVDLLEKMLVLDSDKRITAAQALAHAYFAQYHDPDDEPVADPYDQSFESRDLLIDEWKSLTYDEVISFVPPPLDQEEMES
Experimental: as §1

IRAK4 = IRAK4 (Homo sapiens (Human), UniProt Q9NWZ3); test: as above; type: biochemical; conditions: 1 μM compound, read-out: Percent enzyme activity inhibition, IRAK4
IRAK4, sequence (Q9NWZ3 whole entry): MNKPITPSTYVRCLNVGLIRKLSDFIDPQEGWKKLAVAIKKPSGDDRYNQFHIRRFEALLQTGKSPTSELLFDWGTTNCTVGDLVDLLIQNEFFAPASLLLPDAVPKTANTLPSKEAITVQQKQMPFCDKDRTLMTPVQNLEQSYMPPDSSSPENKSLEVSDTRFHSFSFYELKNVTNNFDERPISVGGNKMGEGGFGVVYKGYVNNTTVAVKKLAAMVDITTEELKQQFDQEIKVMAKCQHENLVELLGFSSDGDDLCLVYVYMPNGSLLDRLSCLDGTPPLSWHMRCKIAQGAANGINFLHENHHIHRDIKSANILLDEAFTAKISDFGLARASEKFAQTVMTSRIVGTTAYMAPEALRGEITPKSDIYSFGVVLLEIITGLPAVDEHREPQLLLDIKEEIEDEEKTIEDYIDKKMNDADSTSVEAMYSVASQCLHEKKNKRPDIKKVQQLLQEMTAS
Experimental: as §1

IKKb = IKKb (Homo sapiens (Human), UniProt O14920); test: as above; type: biochemical; conditions: 1 μM compound, read-out: Percent enzyme activity inhibition, IKKb
Experimental: as §1

SYK = SYK (Homo sapiens (Human), UniProt P43405); test: as above; type: biochemical; conditions: 1 μM compound, read-out: Percent enzyme activity inhibition, SYK
Experimental: as §1

CHK1 = CHK1 (Homo sapiens (Human), UniProt O14757); test: as above; type: biochemical; conditions: 1 μM compound, read-out: Percent enzyme activity inhibition, CHK1
Experimental: as §1

DAPK1 = DAPK1 (Homo sapiens (Human), UniProt P53355); test: as above; type: biochemical; conditions: 1 μM compound, read-out: Percent enzyme activity inhibition, DAPK1
Experimental: as §1

PKCa = PKCa (Homo sapiens (Human), UniProt P17252); test: as above; type: biochemical; conditions: 1 μM compound, read-out: Percent enzyme activity inhibition, PKCa
Experimental: as §1

MINK1 = MINK1 (Homo sapiens (Human), UniProt Q8N4C8); test: as above; type: biochemical; conditions: 1 μM compound, read-out: Percent enzyme activity inhibition, MINK1
Experimental: as §1

GSK3b = GSK3b (Homo sapiens (Human), UniProt P49841); test: as above; type: biochemical; conditions: 1 μM compound, read-out: Percent enzyme activity inhibition, GSK3b
GSK3b, sequence (P49841 whole entry): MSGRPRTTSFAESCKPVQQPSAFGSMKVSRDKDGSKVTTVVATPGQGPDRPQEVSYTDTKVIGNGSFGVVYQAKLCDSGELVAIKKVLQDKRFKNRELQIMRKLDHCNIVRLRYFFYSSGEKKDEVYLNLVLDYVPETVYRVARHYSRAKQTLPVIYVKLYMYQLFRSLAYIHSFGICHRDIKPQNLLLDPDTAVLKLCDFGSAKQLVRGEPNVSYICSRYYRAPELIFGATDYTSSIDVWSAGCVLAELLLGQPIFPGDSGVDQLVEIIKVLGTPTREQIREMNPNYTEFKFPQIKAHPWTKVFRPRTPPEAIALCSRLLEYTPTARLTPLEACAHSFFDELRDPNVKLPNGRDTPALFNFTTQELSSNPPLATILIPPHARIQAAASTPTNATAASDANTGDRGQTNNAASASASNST
Experimental: as §1

AKT1 = AKT1 (Homo sapiens (Human), UniProt P31749); test: as above; type: biochemical; conditions: 1 μM compound, read-out: Percent enzyme activity inhibition, AKT1
AKT1, sequence (P31749 whole entry): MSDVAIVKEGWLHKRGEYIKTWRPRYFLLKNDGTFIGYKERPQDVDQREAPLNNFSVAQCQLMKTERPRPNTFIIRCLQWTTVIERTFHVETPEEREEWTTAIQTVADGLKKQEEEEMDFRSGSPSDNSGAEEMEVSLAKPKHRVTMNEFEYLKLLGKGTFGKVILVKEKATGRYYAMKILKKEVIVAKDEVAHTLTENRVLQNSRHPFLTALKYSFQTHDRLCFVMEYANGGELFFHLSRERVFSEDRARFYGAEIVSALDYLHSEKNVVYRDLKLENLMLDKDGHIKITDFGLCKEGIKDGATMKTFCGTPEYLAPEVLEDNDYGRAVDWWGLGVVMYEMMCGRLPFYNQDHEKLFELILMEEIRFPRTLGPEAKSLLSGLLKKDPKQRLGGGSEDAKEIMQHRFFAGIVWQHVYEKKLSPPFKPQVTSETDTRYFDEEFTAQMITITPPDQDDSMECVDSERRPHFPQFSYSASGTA
Experimental: as §1

Aurora A = Aurora A (Homo sapiens (Human), UniProt O14965); test: as above; type: biochemical; conditions: 1 μM compound, read-out: Percent enzyme activity inhibition, Aurora A
Experimental: as §1

MAPKAPK2 = MAPKAPK2 (Homo sapiens (Human), UniProt P49137); test: as above; type: biochemical; conditions: 1 μM compound, read-out: Percent enzyme activity inhibition, MAPKAPK2
MAPKAPK2, sequence (P49137 whole entry): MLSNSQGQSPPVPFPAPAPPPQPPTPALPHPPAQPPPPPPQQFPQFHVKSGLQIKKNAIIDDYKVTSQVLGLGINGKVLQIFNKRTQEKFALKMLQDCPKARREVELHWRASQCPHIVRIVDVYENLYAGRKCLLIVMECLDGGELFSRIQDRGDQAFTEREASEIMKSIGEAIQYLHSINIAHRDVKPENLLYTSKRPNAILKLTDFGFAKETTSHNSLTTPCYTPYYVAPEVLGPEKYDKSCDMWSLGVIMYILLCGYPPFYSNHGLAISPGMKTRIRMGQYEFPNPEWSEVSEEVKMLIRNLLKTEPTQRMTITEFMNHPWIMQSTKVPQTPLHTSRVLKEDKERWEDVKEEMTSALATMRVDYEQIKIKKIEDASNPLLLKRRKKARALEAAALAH
Experimental: as §1

ROCK1 = ROCK1 (Homo sapiens (Human), UniProt Q13464); test: ROCK1 ADP-Glo kinase enzyme inhibition assay; type: biochemical; conditions: read-out: ROCK1 IC50
ROCK1, sequence (Q13464 whole entry): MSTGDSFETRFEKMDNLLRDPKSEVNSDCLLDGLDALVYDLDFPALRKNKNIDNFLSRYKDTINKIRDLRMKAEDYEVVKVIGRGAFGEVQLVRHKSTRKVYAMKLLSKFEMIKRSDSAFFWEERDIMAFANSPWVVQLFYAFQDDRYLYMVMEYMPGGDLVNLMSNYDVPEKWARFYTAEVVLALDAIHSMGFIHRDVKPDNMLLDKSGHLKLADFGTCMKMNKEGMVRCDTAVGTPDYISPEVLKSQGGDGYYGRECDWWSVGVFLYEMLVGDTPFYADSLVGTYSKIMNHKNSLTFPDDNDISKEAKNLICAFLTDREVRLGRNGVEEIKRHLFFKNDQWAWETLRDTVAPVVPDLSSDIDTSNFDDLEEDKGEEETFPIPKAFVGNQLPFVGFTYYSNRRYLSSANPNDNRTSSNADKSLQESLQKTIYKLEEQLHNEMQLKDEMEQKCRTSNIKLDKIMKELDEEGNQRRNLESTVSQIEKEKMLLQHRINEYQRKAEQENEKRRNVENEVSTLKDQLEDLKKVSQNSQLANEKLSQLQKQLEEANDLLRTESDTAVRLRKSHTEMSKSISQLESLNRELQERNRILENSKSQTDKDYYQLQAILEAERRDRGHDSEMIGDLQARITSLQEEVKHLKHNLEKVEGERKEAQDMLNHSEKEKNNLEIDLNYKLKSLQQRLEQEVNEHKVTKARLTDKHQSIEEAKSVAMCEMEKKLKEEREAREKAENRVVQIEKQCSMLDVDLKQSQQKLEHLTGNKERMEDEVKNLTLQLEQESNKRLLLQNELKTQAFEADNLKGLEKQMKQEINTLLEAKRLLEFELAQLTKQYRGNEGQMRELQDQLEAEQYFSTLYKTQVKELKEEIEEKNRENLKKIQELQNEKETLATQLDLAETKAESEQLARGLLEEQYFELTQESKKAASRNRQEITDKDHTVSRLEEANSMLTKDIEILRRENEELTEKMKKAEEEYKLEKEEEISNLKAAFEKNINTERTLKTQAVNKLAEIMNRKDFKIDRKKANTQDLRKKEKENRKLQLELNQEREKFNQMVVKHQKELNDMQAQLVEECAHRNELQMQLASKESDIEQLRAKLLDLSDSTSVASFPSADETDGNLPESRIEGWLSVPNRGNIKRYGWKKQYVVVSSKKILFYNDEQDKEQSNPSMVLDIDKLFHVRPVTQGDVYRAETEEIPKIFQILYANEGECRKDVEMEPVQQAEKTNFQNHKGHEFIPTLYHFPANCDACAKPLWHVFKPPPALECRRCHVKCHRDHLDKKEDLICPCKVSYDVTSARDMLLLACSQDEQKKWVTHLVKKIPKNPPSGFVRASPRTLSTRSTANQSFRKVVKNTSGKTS
Experimental: We measured ROCK and PKA kinase enzyme activity inhibition by compounds using commercially available ROCK1 (Promega Corporation, cat #V9581), ROCK2 (Promega, cat #V4045), and PKA kinase (Promega, cat #V4247) ADP-Glo™ assay kits. ADP-Glo™ Kinase Assay is a luminescent ADP detection assay that provides a homogeneous method to measure kinase activity by quantifying the amount of ADP produced during a kinase reaction. The assay is performed in two steps. First, after the kinase reaction, an equal volume of ADP-Glo™ Reagent is added to terminate the kinase reaction and deplete the remaining ATP. Second, the Kinase Detection Reagent is added to simultaneously convert ADP to ATP and allow the newly synthesized ATP to be measured using a luciferase/luciferin reaction. The light generated is measured using a luminometer. A complete protocol is included with the kits and is also available at the Promega website. The assay is briefly described below. • 1. Diluted enzyme, substrate, ATP, and compounds (inhibitors) in Kinase Buffer (40 mM Tris, 7.5, 20 mM MgCl2, 0.1 mg/ml BSA, 50 μM DTT). • 2. Added 1 μl of inhibitor, 2 μl of enzyme and 2 μl of substrate/ATP mix to the wells of 384-well low volume nonbinding assay plate A series of three-fold dilution of inhibitor was prepared and assayed for each inhibitor. • 3. Incubated at room temperature for 60 minutes. • 4. Added 5 μl of ADP-Glo™ Reagent. • 5. Incubated at room temperature for 60 minutes. • 6. Added 10 μl of Kinase Detection Reagent • 7. Incubated at room temperature for 30 minutes.
Recorded luminescence (Integration time 1 second) using a plate-based luminometer.
Calculated Percent Enzyme Activity: First subtract the signal of the negative control (no enzyme and no inhibitor) from each sample's signal. Then use the mean relative light units (RLU) values for the 0% kinase activity (neither inhibitor nor enzyme) and the 100% kinase activity (no compound) to calculate the other percent enzyme activities remaining in the presence of the different dilutions of inhibitor. […]

T1 sequence (O75116 whole entry): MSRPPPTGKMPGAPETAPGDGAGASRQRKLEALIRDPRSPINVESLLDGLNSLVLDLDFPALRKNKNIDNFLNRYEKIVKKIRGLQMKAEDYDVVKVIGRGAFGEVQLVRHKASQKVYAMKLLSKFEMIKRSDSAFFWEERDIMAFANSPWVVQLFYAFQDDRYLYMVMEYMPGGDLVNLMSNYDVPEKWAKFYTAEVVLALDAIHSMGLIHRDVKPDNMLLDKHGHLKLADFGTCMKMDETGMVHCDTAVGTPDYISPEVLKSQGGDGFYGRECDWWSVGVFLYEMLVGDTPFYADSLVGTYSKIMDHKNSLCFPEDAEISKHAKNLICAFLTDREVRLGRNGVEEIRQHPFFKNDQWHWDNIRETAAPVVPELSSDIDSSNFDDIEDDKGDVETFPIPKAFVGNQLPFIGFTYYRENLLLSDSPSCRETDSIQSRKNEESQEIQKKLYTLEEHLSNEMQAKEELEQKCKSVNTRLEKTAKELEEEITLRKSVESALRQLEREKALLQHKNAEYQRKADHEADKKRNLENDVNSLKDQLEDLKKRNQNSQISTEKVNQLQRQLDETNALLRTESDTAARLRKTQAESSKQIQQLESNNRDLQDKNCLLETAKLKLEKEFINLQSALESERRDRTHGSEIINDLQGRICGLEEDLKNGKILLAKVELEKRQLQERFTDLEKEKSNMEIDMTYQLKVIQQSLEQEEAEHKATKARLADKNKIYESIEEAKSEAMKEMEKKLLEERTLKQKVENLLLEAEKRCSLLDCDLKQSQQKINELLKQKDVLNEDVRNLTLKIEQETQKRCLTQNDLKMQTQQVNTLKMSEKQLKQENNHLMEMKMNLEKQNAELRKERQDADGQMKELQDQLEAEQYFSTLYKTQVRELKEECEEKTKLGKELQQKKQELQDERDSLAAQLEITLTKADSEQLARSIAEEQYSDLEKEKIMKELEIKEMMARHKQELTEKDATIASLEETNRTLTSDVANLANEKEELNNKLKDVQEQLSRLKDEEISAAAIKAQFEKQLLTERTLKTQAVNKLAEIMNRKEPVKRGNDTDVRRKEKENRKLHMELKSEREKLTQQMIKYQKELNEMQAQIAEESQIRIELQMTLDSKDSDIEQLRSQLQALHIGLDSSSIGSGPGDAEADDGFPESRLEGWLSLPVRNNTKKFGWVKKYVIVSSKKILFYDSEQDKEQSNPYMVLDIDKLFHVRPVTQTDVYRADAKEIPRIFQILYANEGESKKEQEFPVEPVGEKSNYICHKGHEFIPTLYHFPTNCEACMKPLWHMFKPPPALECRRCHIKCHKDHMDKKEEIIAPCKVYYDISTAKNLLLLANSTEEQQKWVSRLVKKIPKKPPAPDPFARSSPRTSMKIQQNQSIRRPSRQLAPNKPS

Cl.Cl.NCC(C(=O)Nc1ccc2cnccc2c1)c1ccc(B(O)O)cc1 (centres unmarked) [Compound 10•2HCl]
% ROCK2 inhibition at 20 nM (ROCK2 [1]; 25 mM Borate pH 5 (0.5 mg/ml), 15 days at 23° C.): 31%
% ROCK2 inhibition at 20 nM (ROCK2 [1]; 25 mM Borate, pH 5 (0.5 mg/ml), 15 days at −20° C.): 32%
% ROCK2 inhibition at 20 nM (ROCK2 [1]; 25 mM Borate, pH 5, 150 mM NaCl (0.5 mg/ml), 15 days at 23° C.): 29%
% ROCK2 inhibition at 20 nM (ROCK2 [1]; 150 mM NaCl (0.5 mg/ml), 0 days at 23° C.): 35%
% ROCK2 inhibition at 20 nM (ROCK2 [1]; 150 mM NaCl (0.5 mg/ml), 15 days at 23° C.): 35%
% ROCK2 inhibition at 20 nM (ROCK2 [1]; 150 mM NaCl (2 mg/ml), 120 days at 4° C.): 31%
% ROCK2 inhibition at 20 nM (ROCK2 [1]; 150 mM NaCl (2 mg/ml), 120 days at 37° C.): 35%
Stability in solution (ROCK2 [1]; 150 mM NaCl, 37° C. and 4° C.): stable for 4 months
% ROCK2 inhibition at 20 nM (ROCK2 [1]; Water (0.5 mg/ml), 15 days at 23° C.): 34%
% ROCK2 inhibition at 20 nM (ROCK2 [1]; Water (0.5 mg/ml), 15 days at −20° C.): 33%
clinical signs of toxicity, morbidity and mortality [2]: No treatment-related adverse effects were noticed
% ROCK2 inhibition at 20 nM (ROCK2 [3]; 25 mM Borate pH 7 (0.5 mg/ml), 15 days at 23° C.): 36%
% ROCK2 inhibition at 20 nM (ROCK2 [3]; 25 mM Borate, pH 7 (0.5 mg/ml), 15 days at −20° C.): 34%
% ROCK2 inhibition at 20 nM (ROCK2 [3]; 25 mM Borate, pH 7, 150 mM NaCl (0.5 mg/ml), 15 days at 23° C.): 32%
Stability in solution (ROCK2 [3]; pH 5 and 7 buffers, room temperature): stable in pH 5 and 7 buffers at room temperature for 15 days
inhibition at 1 µM (LCK): 0%
inhibition at 1 µM (p38a): 0%
inhibition at 1 µM (IRAK4): 0%
inhibition at 1 µM (IKKb): 0%
inhibition at 1 µM (SYK): 2%
inhibition at 1 µM (CHK1): 21%
inhibition at 1 µM (DAPK1): 20%
inhibition at 1 µM (PKCa): 72%
inhibition at 1 µM (MINK1): 3%
inhibition at 1 µM (GSK3b): 0%
inhibition at 1 µM (AKT1): 55%
inhibition at 1 µM (Aurora A): 21%
inhibition at 1 µM (MAPKAPK2): 30%
IC50 (ROCK1): 54 nM

Source: patent publication US12479866B2, “Boron-containing rho kinase inhibitors” (Percipiad, Inc., priority 2019, dated 2025)
